Experimental data: the NIST ThermoML archive (doi:10.1016/j.jct.2016.10.033)

Test: refractive index (Na D-line) (dimensionless); xn = mol fraction of the nth substance listed
Conditions: 103 kPa, Liquid, Standard Abbe refractometry

CCO[Si](C)(C)OCC [dimethyldiethoxysilane] + CO[Si](C)(OC)c1ccccc1
refractive index
Conditions | 298.15 K | 303.15 K | 308.15 K | 313.15 K | 318.15 K
x2 = 0 | 1.38045 | 1.37791 | 1.37532 | 1.37275 | 1.37015
x2 = 0.05 | 1.38569 | 1.38315 | 1.38057 | 1.37799 | 1.37541
x2 = 0.1001 | 1.39089 | 1.38836 | 1.38582 | 1.38325 | 1.38071
x2 = 0.1499 | 1.39601 | 1.39351 | 1.39097 | 1.38844 | 1.38592
x2 = 0.2002 | 1.40114 | 1.39865 | 1.39614 | 1.39362 | 1.39108
x2 = 0.2501 | 1.40622 | 1.40372 | 1.40124 | 1.39874 | 1.39625
x2 = 0.3001 | 1.41123 | 1.40874 | 1.40626 | 1.40376 | 1.40129
x2 = 0.3499 | 1.41623 | 1.41376 | 1.41131 | 1.40883 | 1.4064
x2 = 0.4 | 1.42117 | 1.41873 | 1.41626 | 1.41378 | 1.41133
x2 = 0.4499 | 1.42609 | 1.42366 | 1.42126 | 1.41881 | 1.41639
x2 = 0.5 | 1.43096 | 1.42854 | 1.42613 | 1.42369 | 1.42133
x2 = 0.55 | 1.43582 | 1.4334 | 1.43098 | 1.42856 | 1.42618
x2 = 0.5999 | 1.44058 | 1.43819 | 1.43579 | 1.43336 | 1.43098
x2 = 0.65 | 1.44535 | 1.44296 | 1.44058 | 1.43819 | 1.43582
x2 = 0.6999 | 1.45008 | 1.4477 | 1.44531 | 1.4429 | 1.44055
x2 = 0.75 | 1.45489 | 1.45239 | 1.45002 | 1.44764 | 1.44527
x2 = 0.8 | 1.4594 | 1.45703 | 1.45464 | 1.45227 | 1.44991
x2 = 0.8498 | 1.464 | 1.46165 | 1.45929 | 1.45692 | 1.45455
x2 = 0.9 | 1.46859 | 1.46623 | 1.46388 | 1.46153 | 1.45918
x2 = 0.95 | 1.47312 | 1.47078 | 1.46843 | 1.46607 | 1.46372
